Assay results from article PMC4891657, “Orexin 2 Receptor Antagonism is Sufficient to Promote NREM and REM Sleep from Mouse to Man” (Scientific Reports, 2016).

Experiments:
Dog plasma free fraction = assay type: in vitro ADME
sleep = assay: Polysomnography in healthy male subjects; assay type: in vivo, human
Method: In the PSG study, subjects underwent 8-hour PSG recording periods beginning 1 hour after nighttime administration of MK-1064 (50, 120 and 250 mg) or placebo. […] Dose-dependence of the effects of MK-1064, while not evaluated statistically, was most pronounced with regard to LPS, LREM and REM sleep, and to a lesser extent, TST and WASO sleep (Fig. 7b).
Figure 7 MK-1064 promotes sleep in healthy subjects. MK-1064 (50, 120 and 250 mg) or placebo were administered 1 hour prior to the normal resting phase in healthy subjects (N = 20), and PSG effects were monitored during the normal resting phase.
Twenty healthy male subjects between the ages of 18 and 45 years were recruited to a double-blind, randomized, 4-period, crossover study to evaluate the effects of single doses of MK-1064. Subjects were without a history of physical or mental illnesses, had no history of sleep abnormalities, and were not regularly taking medication. Subject inclusion required a sleep score ≤6 on the Pittsburgh Sleep Quality Index at the time of screening, and qualified subjects underwent a PSG screening prior to randomization to exclude those with latent sleep disturbances. In each of the 4 treatment periods, subjects were randomized to receive single doses of MK-1064 (50, 120, or 250 mg) or matching placebo according to a balanced crossover design (see Fig. 5). Briefly, 20 subjects were randomized to 4 panels (n = 5 each). Each panel then received each of the four treatments (placebo, 50, 120, 250 mg MK-1064) in 4 different study periods where each period allocated the 4 different treatments to the 4 different subject panels. Progression through each period rotated the 4 different treatments among the subject panels such that each panel ultimately received all 4 treatments. In all 4 study periods, subjects were admitted for a pre-dose habituation night. On the following treatment night, subjects were administered a single dose of study medication in a blinded manner approximately 1 hour before their habitual bedtime. Study medication was administered following a ≥4-hour fast. Dosing in different treatment periods was separated by a washout of at least 7 days for each subject. PSG recording commenced at 1 hour post-dose and continued during undisturbed sleep for 8 hours overnight. Visual scoring of each 30-sec epoch of PSG recording to wake or one of four sleep states (S1, S2, SWS, collectively referred to as NREM, and REM) was performed according to standard and established Rechtschaffen and Kales criteria. Obtained scores were then used to calculate efficacy assessment measures including latency to persistent sleep (LPS) (min), wake after sleep onset (WASO) (min), sleep efficiency (SE) (%), and total sleep time (TST) (min). LPS is the time from lights off to the first epoch of 20 consecutive epochs of non-wake stage; WASO is the time in wake stage between the onset of persistent sleep and the time of lights on; and SE is the proportion of time between lights off and lights on that was spent in sleep. In addition to efficacy parameters, latency to REM (LREM) (min), equal to the time from lights off to the first epoch of REM, and the proportion (%) of TST spent in NREM and REM were calculated. Estimation of the effects of treatment on PSG endpoints relative to placebo, including the calculation of confidence intervals and p-values were done using a mixed-effect statistical model typical for crossover studies. Specifically, logarithm of an analyzed endpoint represented the response variable, and treatment dose, treatment period, and carryover effect were fixed-effect explanatory variables. Subject effect was the random effect with the within-subject covariance assumed to be of the unstructured type. […] SAS/STAT® Version 9.3 software (SAS Institute, Cary NC) was used in the analysis.

[1] = healthy subjects, two highest doses (120, 250 mg)

## COc1ccc(CNC(=O)c2cc(-c3cncc(Cl)c3)cnc2-c2ccccn2)nc1OC [MK-1064, 5″-chloro-N-[(5,6-dimethoxypyridin-2-yl)methyl]-2,2′:5′, 3″-terpyridine-3′-carbo xamide]
Dog plasma free fraction
  fraction unbound: 0.286
sleep; healthy subjects, 120 mg
  time spent in Stage 2: significant increase
sleep; healthy subjects, 50, 120 and 250 mg (all doses)
  LPS as fraction of placebo response: significant reductions
sleep; [1]
  WASO as fraction of placebo response: significant reductions
  reduction in LREM versus placebo: statistically significant
sleep; healthy subjects, two lower doses (50, 120 mg)
  NREM sleep: increases in NREM sleep
sleep; healthy subjects, vs placebo
  time spent in Stage 1 and SWS: not significantly different from placebo
